Assay results as given in ChEMBL document CHEMBL4418489, “FTO inhibitors” (2018).

Columns and labels:
Homo sapiens = organism: Homo sapiens; assay: Selectivity index, ratio of IC50 for COMT (unknown origin) (test compound)/IC50 for FTO (unknown origin) (test compound) to IC50 for COMT (entacapone)/IC50 for FTO (entacapone)
[1] = target: Alpha-ketoglutarate-dependent dioxygenase FTO (Homo sapiens, UniProt Q9C0B1); assay: Inhibition of FTO (unknown origin) assessed as reduction in demethylation by measuring N6-mA and A level incubated for 2 hrs by HPLC-MS/MS analysis
Chain of Alpha-ketoglutarate-dependent dioxygenase FTO (Q9C0B1 whole entry): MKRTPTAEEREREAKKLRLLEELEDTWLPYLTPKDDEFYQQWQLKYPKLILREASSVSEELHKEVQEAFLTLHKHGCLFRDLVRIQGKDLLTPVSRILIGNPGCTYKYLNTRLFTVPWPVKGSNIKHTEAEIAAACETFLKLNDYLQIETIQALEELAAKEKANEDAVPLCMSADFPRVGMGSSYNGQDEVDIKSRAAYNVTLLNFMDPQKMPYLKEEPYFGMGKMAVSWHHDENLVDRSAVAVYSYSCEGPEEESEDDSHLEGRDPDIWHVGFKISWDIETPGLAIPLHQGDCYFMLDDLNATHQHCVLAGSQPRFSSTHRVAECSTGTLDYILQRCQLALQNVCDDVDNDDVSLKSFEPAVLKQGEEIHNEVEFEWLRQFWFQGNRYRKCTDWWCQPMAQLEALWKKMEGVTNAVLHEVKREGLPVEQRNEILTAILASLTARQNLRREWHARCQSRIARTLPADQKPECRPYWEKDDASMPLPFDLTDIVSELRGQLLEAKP

N#C/C(=C\c1cc(O)c(O)c([N+](=O)[O-])c1)C(=O)N1CCC1
Ratio IC50 (Homo sapiens): 1.65

CCN(CC)C(=O)/C(C#N)=C/c1cc(O)c(O)c([N+](=O)[O-])c1 [ENTACAPONE]
IC50 [1]: 3 µM
